From patent US11471458B2, “Diacylglycerol acyl transferase 2 inhibitor” (Pfizer Inc., priority 2019, dated 2022) come the findings set out here.

The test system of data set [1] is Western diet fed Sprague-Dawley rats. As to the kind of experiment: Rat western diet model: in vivo effects on plasma and hepatic triglyceride levels. Particulars: compared with chow-fed vehicle animals. From the text: The rat western diet model was utilized to assess the effects of DGAT2 inhibitor treatment on plasma triglyceride production and hepatic triglyceride content in vivo. Male Sprague-Dawley rats were housed under standard laboratory conditions on a 12-hour light, 12-hour dark cycle (lights on at 06:00). Two weeks prior to study start animals were placed on a high-fat, high sucrose, high-cholesterol diet (D12079b, provided by Research Diets, New Brunswick, N.J.). This diet provides ˜43% of kilocalories from carbohydrate and ˜41% of kilocalories from fat. Example 4 was administered orally as a solution (10 mL/kg dosing volume) in 0.5% methylcellulose in deionized water, pH 7.0-7.5 (methylcellulose was obtained from Sigma-Aldrich, St. Louis, Mo.). […] Plasma TG levels were determined using a Roche Hitachi Chemistry analyzer according to the manufacturer's instructions (Roche Diagnostics Corporation, Indianapolis, Ind.) and data was analyzed using GraphPad Prism (GraphPad Software, Inc., La Jolla, Calif.). […] The triglyceride assay was performed through absorbance and reported as milligrams per deciliter. […]
FIG. 4 plots the multiple dose effects of Example 4 on Plasma Triglyceride in Western Diet Fed Sprague-Dawley Rats where plasma triglyceride levels were determined from blood drawn from the lateral tail vein 2-hours following the final dose of Example 4. […]

The nature of data set [2]: Thermodynamic solubility in various biorelevant media. Format: physicochemical. Particulars: PBS, pH 6.8; crystalline solid. The procedure: The solubility of active pharmaceutical ingredients is an important characteristic in determining biological performance and ease of formulation during drug development, with high solubility being preferred (Klein, S. 2010, The AAPS Journal, 12, 397-406; Di, L., et al 2012, Drug Disc. Today, 17. 486-495). A test sample of crystalline solid (˜7 mg) was combined in a vial with 1 mL of the relevant buffer solution and the mixture vortexed to combine. If the solid dissolved completely, additional solid was added with vortexing until a saturated solution was obtained. The saturated solution/solid mixture was capped and subjected to temperature cycling as follows: 1 min at 25° C., 8 h at 40° C., 5 h at 15° C. and 12 h at 25° C. The mixture was filtered in a centrifugal filtration device (0.22 μm PVDF filter, MilliporeSigma, Milwaukee, Wis.) at 13,000 rpm and the concentration of the test compound in the filtrate was determined by HPLC/UPLC with reference to a three point standard curve. Phosphate buffered saline (PBS, pH 6.8, 50 mM phosphate buffer, 250 mM NaCl). Simulated gastric fluid (SGN pH 1.2, USP recipe). Fasted state simulated intestinal fluid (FaSSIF, 3 mM sodium taurocholate, 0.75 mM phospholipid from soybean lecithin, 50 mM phosphate buffer, ionic strength adjusted to 250 mM with NaCl, pH 6.8) and fed state simulated intestinal fluid (FeSSIF, 15 mM sodium taurocholate, 3.75 mM phospholipid from soybean lecithin, 144 mM acetic acid, 50 mM phosphate buffer, ionic strength adjusted to 250 mM with NaCl, pH 6.8).

The next data set deals with human DGAT2 (hDGAT2) (Homo sapiens (Human), UniProt Q96PD7). The data set can be described thus: In vitro DGAT2 assay, determination of IC50 values for DGAT2 inhibitors. Particulars: hDGAT2 membrane fraction; geometric mean. Format: biochemical. The procedure: Recombinant baculovirus for the FLAG-tagged hDGAT2 was generated in SF9 insect cells using Bac-to-Bac baculovirus expression system (Invitrogen) according to the manufacturer's protocol. For the expression of hDGAT2, SF9 cells (20 L) grown in Sf900II media were infected with hDGAT2 baculovirus at a multiplicity of infection of 1 in a Wave Bioreactor System 20/50P wave bag (GE Healthcare). After 40 hours of infection, the cells were then harvested by centrifugation at 5,000×g. The cell pellets were washed by resuspending in phosphate buffered saline (PBS) and collected by centrifugation at 5,000×g. The cell paste was flash frozen in liquid N2 and stored at −80° C. until needed. All operations below were at 4° C. unless otherwise noted. The cells were resuspended in lysis buffer (50 mM Tris-HCl, pH 8.0, 250 mM sucrose) including 1 mM ethylenediaminetetraacetic acid (EDTA) and the complete protease inhibitor cocktail (Roche Diagnostics) at a ratio of 3 mL buffer per 1 g cell paste. The cells were lysed by dounce homogenizer. The cell debris was removed by centrifugation at 1,000×g for 20 min, and the supernatant was centrifuged at 100,000×g for 1 hour. The resulting pellet was rinsed three times by filling ultracentrifuge tubes to the top with ice cold PBS before decanting. The washed pellet was resuspended with gentle stirring for 1 hour in lysis buffer containing 8 mM 3-[(3-cholamidopropyl)dimethylammonio]-1-propanesulfonate (CHAPS) at a ratio of 1 mL buffer per 1 g of original cell paste and centrifuged again at 100,000×g for 1 hour. The resulting supernatant was aliquotted, flash frozen in liquid N2, and stored at −80° C. until use.
To 1 μL of compounds dissolved in 100% DMSO and spotted at the bottom of each well, 5 μL of 0.04% bovine serum albumin (BSA) (fatty acid free, Sigma Aldrich) was added and the mixture was incubated at room temperature for 15 minutes. hDGAT2 membrane fractions were diluted in 100 mM Hepes-NaOH, pH 7.4, 20 mM MgCl2 containing 200 nM methyl arachidonyl fluorophosphonate (Cayman Chemical; dried from ethyl acetate stock solution under argon gas and dissolved in DMSO as 5 mM stock). 10 μL of this enzyme working solution was added to the plates and incubation continued for 2 hours at room temperature. […] Plates were centrifuged at 2,000×g for 1 minute in an Allegra 6R Centrifuge (Beckman Coulter) and then were sealed again with fresh covers before reading in a 1450 Microbeta Wallac Trilux Scintillation Counter (Perkin Elmer). DGAT2 activity was measured by quantifying the generated product [^14C]tridecanoylglycerol in the upper organic phase. […]

The nature of data set [3]: Determination of pKa (capillary electrophoresis, Analiza, Inc.). The class given is physicochemical. Particulars: mean, read-out: Basic pKa (most basic pKa).
The nature of data set [4]: Intrinsic clearance in human liver microsomes. The class given is in vitro ADME. The following applies: human, pooled human liver microsomes (50 donors), pH 7.4, human liver microsome assay; 1 μM test compound, 0.806 mg/mL protein, NADPH, pH 7.4, 37° C.; mean +/− STD Dev; read-out: CLint (μL/min/mg) (+/− STD Dev). The protocol: The incubations were conducted at 37° C. […] (Sorvall RC 3C Plus, Thermo Scientific, Waltham, Mass.).
Background: Liver microsomes are a subcellular fraction often used to study metabolism.

Data set [5] has as its target DGAT2 in human hepatocytes (Homo sapiens (Human), UniProt Q96PD7). As to the kind of experiment: Determination of IC50 values for DGAT2 inhibitors in human hepatocytes. Format: cell-based. The following applies: cryopreserved human hepatocytes, DGAT1 inhibitor present; geometric mean. The protocol:
For evaluation of the effects of DGAT2 inhibitors in a cell-based setting, cryopreserved human hepatocytes (Lot DOO, Celsis, Baltimore, Md.) were thawed and plated onto type I collagen-coated plates according to the manufacturer's instructions. After 18 hours overnight recovery period, the cells were overlayed with media containing 250 μg/mL Geltrex Basement Membrane Matrix (Thermo Fisher). The following day, media was aspirated and replaced with serum-free Williams Media E (Thermo Fisher) containing 400 μM sodium dodecanoate (Sigma-Aldrich, St. Louis, Mo.) and 2 mM GlutaMAX (Thermo Fisher). […] DGAT2 inhibitors were then added to the desired final concentration. After a 15 minute preincubation, 0.2 μCi [^14C(U)]-glycerol (Perkin Elmer) was added to each well followed by a 3 hour incubation. At this point the media was removed, and the cells lysed via orbital shaking in isopropyl alcohol: tetrahydrofuran (9:1) for 15 minutes prior to centrifugation at 3000 rpm for 10 minutes. Radiolabeled lipids were resolved using a solvent system by thin layer chromatography with the solvent consisting of hexanes:diethyl ether:glacial acetic acid (75:23:2, v/v/v). […] The half maximal inhibitory concentrations (IC50 values) were determined by nonlinear regression analysis of the % inhibition dose response curve using GraphPad Prism (GraphPad Software, Inc., La Jolla, Calif.). […]

Data set [6] can be described thus: High throughput determination of intrinsic clearance in human hepatocytes. The class given is in vitro ADME. Particulars: human, pooled cryopreserved human hepatocytes (10 donors), high throughput human hepatocyte assay; 0.5 million cells/mL, 1 μM test compound, 37° C.; mean +/− Std Dev; read-out: CLint (μL/min/10^6 cells) (+/− Std Dev). The protocol:
The incubation was carried out at 37° C. […] The samples were centrifuged (Eppendorf, Hauppauge, N.Y.) at 3000 rpm for 5 min at 4° C.

SMILES strings stand for the structures. In brackets after ≈: the same amount, converted by molar mass. Where a name gives a salt, the structure may show the parent alone.

Sequence of DGAT2 in human hepatocytes (Q96PD7 whole entry): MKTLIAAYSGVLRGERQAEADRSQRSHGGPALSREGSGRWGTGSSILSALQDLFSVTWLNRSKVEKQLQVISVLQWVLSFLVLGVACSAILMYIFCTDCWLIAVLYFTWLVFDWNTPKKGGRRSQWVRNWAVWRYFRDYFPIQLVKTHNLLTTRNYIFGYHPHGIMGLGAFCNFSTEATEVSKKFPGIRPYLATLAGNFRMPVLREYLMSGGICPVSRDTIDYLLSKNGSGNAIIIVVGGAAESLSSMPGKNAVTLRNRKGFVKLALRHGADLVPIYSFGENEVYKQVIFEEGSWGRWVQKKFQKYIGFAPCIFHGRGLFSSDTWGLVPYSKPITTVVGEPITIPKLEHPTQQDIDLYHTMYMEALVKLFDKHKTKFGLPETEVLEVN
Sequence of human DGAT2 (hDGAT2) (Q96PD7 whole entry): as above

On to `CCOc1cccnc1Oc1cncc(-c2ncc(C(=O)N[C@@H]3CNC[C@@H](F)C3)cn2)c1` [Example 4, 2-{5-[(3-Ethoxypyridin-2-yl)oxy]pyridin-3-yl}-N-[(3S,5S)-5-fluoropiperidin-3-yl]pyrimidine-5-carboxamide], for which the “circulating triglyceride response, resulting levels” value in data set [1] is on record as “approached those of the chow-fed vehicle animals”. In data set [2], the Solubility (in general, the dissolved amount per volume that the medium holds) worked out at 580 µg/mL (≈ 1320 µM).

Consider `CCOc1cccnc1Oc1cncc(-c2ncc(C(=O)N[C@@H]3CNCC[C@@H]3F)cn2)c1` [Example 3, 2-{5-[(3-Ethoxypyridin-2-yl)oxy]pyridin-3-yl}-N-[(3R,4S)-4-fluoropiperidin-3-yl]pyrimidine-5-carboxamide, bis(trifluoroacetate) Salt], for which the IC50 – broadly, the midpoint of a concentration-inhibition curve – is 40 nM against human DGAT2 (hDGAT2) and 23 nM in data set [5]. Besides, in data set [3], the pKa (as a rule, the negative logarithm of the acid dissociation constant) is 8.1. In addition, in data set [4], the microsomal CLint at 1 μM is under 7 µL/min/mg. Also, the hepatocyte CLint at 1 μM in data set [6] was under 1.9 µL/min/1e6 cells.
